Columns and labels:
HIV-1/Ba-L = assay: Antiviral activity in human spleen macrophages infected with HIV-1/Ba-L; format: cell-based; details: Human immunodeficiency virus 1, BAL, Macrophage, read-out: concentration that decreases HIV replication by 50%
Description: (§1) The spleen is dissected and sieved and then the mononuclear cells are isolated using a density gradient, on a Ficoll cushion. The monocytes/macrophages are obtained by adherence to the plastic. The monocytes were allowed to differentiate into macrophages for 7 days, at which time they were infected.
Retroviral replication within this cell population, and thus the effectiveness of a molecule such as I-152, is conditioned partly by the level of cell differentiation. It was therefore important to make sure of the antiviral effectiveness of I-152 in monocytes/macrophages with a degree of maturation which can be different from that of MDMs. We have thus evaluated the antiviral activity of I-152 and its ability to regenerate the intracellular level of GSH in spleen macrophages. In this cell populations, the HIV-1/Ba-L strain also replicates at high […]. […] This is because the concentration of 38 μM decreases HIV replication by 50% in this spleen cell population (table III). […] It should be noted that, in the spleen macrophages, as in the macrophages derived from blood monocytes, infection by HIV leads to a deficiency of GSH (MDM; FIG. 16).

HIV-1 LAI = assay: Antiviral activity in quiescent or PHA-P activated PBLs infected with HIV-1 LAI; format: cell-based; details: quiescent PBLs or PBLs activated by PHA-P
Method: For some experiments, the PBMCs and the PBLs are activated for 48 h with 1 μg/ml of a mitogen, PHA-P (Difco Laboratories). The PBMCs and the PBLs are cultured in medium A (quiescent) or B (activated). The cells are cultured at 37° C. in an atmosphere saturated with moisture under 5% of CO2. The culture supernatants are removed and the culture media are replaced every three or four days. At each renewal of the culture media, the cell viability is evaluated by coloring with trypan blue or by microscopic observation.
The MDMs were infected with the reference isolate with macrophage tropism, HIV-1/Ba-L. The PBMCs and the PBLs were infected with the reference isolate with lymphocyte tropism HIV-1 LAI. The viral stock were formed by amplifying these strains in vitro using umbilical blood mononucleated cells (UBM(s) preactivated with 1 μg/ml of PHA-P and cultured in medium A supplemented by 20 IU/ml of IL-2. In order to remove the soluble factors, such as cytokines, the culture supernatants were ultracentrifuged at 360 000 g for 5 min, and the pellets were resuspended in RPMI 1640. The viral stocks thus formed were subsequently titred using PBMCs activated with PHA-P. The TCID50s (50% Tissue Culture Infectious Dose) were calculated using the Kärber formula.
A million MDMs were infected with 10 000 TCID50s of the HIV-1/Ba-L strain. This amount of virus corresponds to a multiplicity of infection (m.o.i.) equal to 0.01. The excess of virus is removed 24 h after by washing with cells using RPMI 1640. […]
The viral replication is measured by assaying the RT activity in the culture supernatants according to the technique described by F. Rey et al. (Biochem. Biophys. Res. Comm., 1984, 121, 126-133). The radioactivity incorporated during the extension of the complementary strand of a poly-rA synthetic matrix in the presence of an oligo-dT12-18 primer and of a radiolabeled substrate, [^3H-methyl]thymidine-5′-triphosphate ([^3H]TPP), makes it possible to assay the enzymatic activity of RT. […] The β radioactivity is quantified by means of a scintillation counter (Packard Bell). […]

GSH = assay: Intracellular concentration of GSH in spleen macrophages; format: cell-based, human
Method: as §1
The intracellular GSH was assayed by means of the assay kit sold by Cayman. This method for assaying glutathione is an adaptation of that described by O. W. Griffith et al. (1980).

HIV provirus = assay: Quantification of proviral DNAs by PCR (integration of the provirus within the cell genome); format: cell-based; details: PCR of proviral DNA
Method: I-152 is composed of MEA and NAC, which are capable of interacting with the early phases of the biological cycle of HIV. It is therefore capable of decreasing the integration of the provirus into the cell genome. In order to measure these effects, the proviral DNAs were quantified by PCR. The cells were lysed using 1 ml of the following lysis solution: 10 mM Tris HCl pH 8; 100 mM of EDTA pH 8; 0.5% of sodium dodecyl sulfate (SDS); 20 μg/ml of DNAse-free bovine pancreatic RNAse. 200 μg/ml of proteinase K are subsequently added to this suspension. The DNAs were subsequently extracted using 1 ml of an ice-cold saturated phenol solution and 1 ml of a […] solution.
The viral DNAs were then amplified by means of specific primers of the gag gene (SK01/SK39) and of a standard range of the 8E5 line, a chronically infected line, the cells of which carry a proviral copy. The β-globin gene was used as reporter gene in order to make sure of the quality of the DNA extraction.

Which results are given for `CC(=O)N[C@@H](CS)C(=O)NCCSC(C)=O` [I-152, N-(N-acetyl-L-cysteinyl)-S-acetylcysteamine]?
EC50 (HIV-1/Ba-L): 38 µM; antiviral activity (in words) (HIV-1 LAI): inhibits viral replication; concentration from which the GSH increase is saturated (GSH): ≥ 250 µM; intracellular level of GSH (in words) (GSH): increases the intracellular level of GSH; integration of the provirus (in words) (HIV provirus): inhibits the integration of the provirus

From patent US6979747B2, “Antioxidants, preparation processes and their uses” (Centre National de la Recherche Scientifique (CNRS), priority 1999, dated 2005)
